# Measured values from ChEMBL document CHEMBL5584339, “Design, Synthesis, and Evaluation of the Antitubercular Activity of 5-Phenyl Substituted-5, 6-dihydropyrido[2, 3-d]pyrimidine-4, 7(3H, 8H)-dione Compounds” (J Med Chem, 2024).
# The source made the active and inactive calls. The rule behind the calls is not given here.
# Legend:
# [1] = Cytotoxicity against african green monkey Vero cells incubated for 48 hrs by CCK8 assay; format: toxicity, cell-based, Chlorocebus sabaeus
# [2] = Selectivity index, ratio of IC50 for african green monkey Vero cells to IC50 for Mycobacterium tuberculosis H37Rv; format: toxicity; conditions: read-out: Ratio IC50
# [3] = system: Mycobacterium tuberculosis; assay: Antitubercular activity against Mycobacterium tuberculosis H37Rv incubated for 7 days by alamar blue assay; format: functional; conditions: 168 h, time 7 day
# [4] = system: Mycobacterium tuberculosis; assay: Binding affinity to Mycobacterium tuberculosis AccD5 at 10 uM by SPR analysis
# [5] = Cytotoxicity against HK-2 cells incubated for 48 hrs by CCK8 assay; format: toxicity, cell-based; conditions: human
# [6] = Metabolic stability in mouse liver microsomes assessed as intrinsic clearance per mg protein at 2 uM preincubated for 60 mins followed by NADPH addition and measured upto 60 mins by LC-MS analysis; format: ADME, Microsome; conditions: time < 120 min, read-out: CLH
# [7] = Metabolic stability in mouse liver microsomes assessed as substrate remaining at 2 uM preincubated for 60 mins followed by NADPH addition and measured upto 60 mins by LC-MS analysis; format: ADME, Microsome; conditions: time < 120 min, read-out: Stability
# [8] = Metabolic stability in human liver microsomes assessed as intrinsic clearance per mg protein at 2 uM preincubated for 60 mins followed by NADPH addition and measured upto 60 mins by LC-MS analysis; format: ADME, Microsome; conditions: time < 120 min, read-out: CLH
# [9] = Metabolic stability in mouse liver microsomes assessed as half-life at 2 uM preincubated for 60 mins followed by NADPH addition and measured upto 60 mins by LC-MS analysis; format: ADME, Microsome; conditions: time < 120 min
# [10] = Metabolic stability in human liver microsomes assessed as half-life at 2 uM preincubated for 60 mins followed by NADPH addition and measured upto 60 mins by LC-MS analysis; format: ADME, Microsome; conditions: time < 120 min
# [11] = Metabolic stability in human liver microsomes assessed as substrate remaining at 2 uM preincubated for 60 mins followed by NADPH addition and measured upto 60 mins by LC-MS analysis; format: ADME, Microsome; conditions: time < 120 min, read-out: Stability
smiles,measurement,setting,value
CCCSc1nc2c(c(=O)[nH]1)C(c1ccccc1)CC(=O)N2 (stereo unspecified),IC50 at 48 h,[1],31.9 µg/mL
same,selectivity ratio,[2],3.3
same,MIC,[3],9.66 µg/mL
CCCOc1ccc(C2CC(=O)Nc3nc(SCCC)[nH]c(=O)c32)c(O)c1 (stereo unspecified),IC50 at 48 h,[1],43.9 µg/mL
same,selectivity ratio,[2],35.6
same,MIC,[3],1.23 µg/mL
NNC(=O)c1ccncc1 [ISONIAZID],IC50 at 48 h,[1],> 100 µg/mL
same,selectivity ratio,[2],> 2000
same,MIC,[3],0.05 µg/mL
CCCSc1nc2c(c(=O)[nH]1)[C@H](c1ccc(OC)cc1[N+](=O)[O-])CC(=O)N2,IC50 at 48 h,[1],> 64 µg/mL
same,Activity,[4],inactive
same,IC50 at 48 h,[5],56.2 µg/mL
same,MIC,[3],7.72 µg/mL
CCCSc1nc2c(c(=O)[nH]1)C(c1ccc(OC)c(O)c1)CC(=O)N2 (stereo unspecified),IC50 at 48 h,[1],> 100 µg/mL
same,selectivity ratio,[2],> 82.1
same,MIC,[3],1.22 µg/mL
CCCSc1nc2c(c(=O)[nH]1)C(c1ccc(OC)c(N)c1)CC(=O)N2 (stereo unspecified),IC50 at 48 h,[1],> 100 µg/mL
same,selectivity ratio,[2],> 50
same,MIC,[3],2 µg/mL
CCCSc1nc2c(c(=O)n1C)C(c1ccc(OC)cc1)CC(=O)N2C (stereo unspecified),IC50 at 48 h,[1],46.5 µg/mL
same,MIC,[3],> 10 µg/mL
CCCSc1nc2c(c(=O)[nH]1)C(c1ccc(OC)c([N+](=O)[O-])c1)CC(=O)N2 (stereo unspecified),IC50 at 48 h,[1],67.5 µg/mL
same,selectivity ratio,[2],14
same,MIC,[3],4.84 µg/mL
CCC[S+]([O-])c1nc2c(c(=O)[nH]1)[C@H](c1ccc(OC)cc1[N+](=O)[O-])CC(=O)N2 (stereo partly specified),MIC,[3],> 32 µg/mL
CCCSc1nc2c(c(=O)[nH]1)C(c1ccccc1)CC(=O)N2C (stereo unspecified),IC50 at 48 h,[1],52.5 µg/mL
same,selectivity ratio,[2],< 5.2
same,MIC,[3],> 10 µg/mL
CCCOc1ccc(C2CC(=O)Nc3nc(SCCC)[nH]c(=O)c32)cc1O (stereo unspecified),IC50 at 48 h,[1],99.3 µg/mL
same,selectivity ratio,[2],21
same,MIC,[3],4.73 µg/mL
CCCSc1nc2c(c(=O)[nH]1)C(c1ccc(OC)cc1)CC(=O)N2 (racemic),IC50 at 48 h,[1],14.5 µg/mL
same,microsomal CLint at 2 µM,[6],2.48 µL/min/mg
same,"remaining at 1 h, 2 µM",[7],87.6%
same,microsomal CLint at 2 µM,[8],5.85 µL/min/mg
same,selectivity ratio,[2],93
same,half-life at 2 µM,[9],560 min
same,half-life at 2 µM,[10],237 min
same,IC50 at 48 h,[5],24.8 µg/mL
same,"remaining at 1 h, 2 µM",[11],83.4%
same,MIC,[3],0.16 µg/mL
CCCSc1nc2c(c(=O)[nH]1)C(c1ccc(OC)c(O)c1O)CC(=O)N2 (stereo unspecified),IC50 at 48 h,[1],27.5 µg/mL
same,MIC,[3],> 10 µg/mL
CCC[S+]([O-])c1nc2c(c(=O)[nH]1)[C@@H](c1ccc(OC)cc1[N+](=O)[O-])CC(=O)N2 (stereo partly specified),MIC,[3],> 32 µg/mL
CCCSc1nc2c(c(=O)[nH]1)C(c1ccc(OC)cc1)CC(=O)N2C (stereo unspecified),IC50 at 48 h,[1],53.6 µg/mL
same,MIC,[3],> 10 µg/mL
COc1ccc(C2CC(=O)Nc3nc(SC)[nH]c(=O)c32)cc1O (stereo unspecified),IC50 at 48 h,[1],> 100 µg/mL
same,MIC,[3],> 10 µg/mL
CCCS(=O)(=O)c1nc2c(c(=O)[nH]1)[C@@H](c1ccc(OC)cc1)CC(=O)N2,MIC,[3],> 32 µg/mL
CCC[S+]([O-])c1nc2c(c(=O)[nH]1)[C@H](c1ccc(OC)cc1)CC(=O)N2 (stereo partly specified),MIC,[3],> 32 µg/mL
CCCSc1nc2c(c(=O)[nH]1)[C@H](c1ccc(OC)cc1)CC(=O)N2,IC50 at 48 h,[1],> 64 µg/mL
same,IC50 at 48 h,[5],73.1 µg/mL
same,MIC,[3],7.83 µg/mL
C=CCSc1nc2c(c(=O)[nH]1)C(c1ccc(OCCC)cc1)CC(=O)N2 (stereo unspecified),IC50 at 48 h,[1],4.57 µg/mL
same,selectivity ratio,[2],2.31
same,MIC,[3],1.98 µg/mL
CCCSc1nc2c(c(=O)[nH]1)C(c1cc(OC)c(OC)c(OC)c1)CC(=O)N2 (stereo unspecified),IC50 at 48 h,[1],> 100 µg/mL
same,MIC,[3],> 10 µg/mL
CCCSc1nc2c(c(=O)[nH]1)C(c1ccc(OCC(C)C)cc1)CC(=O)N2 (stereo unspecified),IC50 at 48 h,[1],41.5 µg/mL
same,MIC,[3],> 10 µg/mL
CCCOc1ccc(C2CC(=O)Nc3nc(SC)[nH]c(=O)c32)cc1 (stereo unspecified),IC50 at 48 h,[1],53.5 µg/mL
same,selectivity ratio,[2],< 5.4
same,MIC,[3],> 10 µg/mL
C=CCSc1nc2c(c(=O)[nH]1)C(c1ccc(OC)c(O)c1)CC(=O)N2 (stereo unspecified),IC50 at 48 h,[1],> 100 µg/mL
same,selectivity ratio,[2],> 45.7
same,MIC,[3],2.19 µg/mL
